Read-outs that look alike come from different tables or passages of the source.
Key:
Rat PAH model = assay: Monocrotaline incurred pulmonary hypertension in rats, right ventricular systolic pressure; type: in vivo; conditions: 200 mg/Kg daily, 30th day, right cardiac catheterization, x ± s, model group 43.78 ± 2.14, normal group 21.08 ± 2.13
Protocol: Method: Rat PAH model was established, and normal saline was fed to contrast group with volume equivalent to that for injection. Drug for interference was fed 2 days after radiography. 200 mg/Kg per compound was fed on daily basis. Normal saline was used with equivalent volume for lavage to the contrast group and model group respectively. Right ventricular systolic pressure of rat was measured by means of Right cardiac catheterization at anesthesia state on the 30th day.

[1] = test system: Isolated tracheal strip (trachea smooth muscle); assay: Isolated tracheal strip relaxation (diastolic rate) after acetylcholine chloride contraction; conditions: read-out: Relaxation rate %
Protocol: Method: Isolated tracheal strip was fabricated, and was placed in the in-vitro tracheal experiment device; 100 μL acetylcholine chloride was added following tension adjustment and balancing to make the trachea extract, and the tension of trachea was increased. Once the tension was increased to the maximum value, and became balanced, corresponding trial drug was fed to inhibit extraction of the trachea; isometric muscle tension variation curve was recorded, and diastolic rate of smooth muscle was calculated. Diastolic rate=(tension after radiography−tension after dosing)/(tension after radiography)*100%.

Rat asthma model = assay: Rat asthma model, nucleated (inflammatory) cell count in bronchi alveolar lavage fluid (BALF); type: in vivo; conditions: BALF total nucleated cells, model group 182.50 ± 24.52, blank group 85.50 ± 18.70
Description: Rat asthma model was established, and proceeded with blunt dissection of trachea following the last feeding of drug for trachea alveolar washing. Bronchi alveolar lavage fluid (BALF) was collected, and total number of nucleated cells were counted.

tracheal smooth muscle = conditions: guinea pig, cited from earlier work
isolated atria = conditions: guinea pig; cited from earlier work
[2] = 0.75 mmol/L, isolated tracheal strip contracted with acetylcholine chloride
[3] = 1.25 mmol/L, isolated tracheal strip contracted with acetylcholine chloride

| SMILES | RVSP (Rat PAH model) | inhibition at 750 µM [1, 2] [%] | inhibition at 1250 µM [1, 3] [%] | Inflammatory cell (Rat asthma model) | inhibition at 750 µM [1] [%] | inhibition at 1250 µM [1] [%] | cAMP content in the tracheal smooth muscle (tracheal smooth muscle) | air passage relaxation (tracheal smooth muscle; in vivo experiment and experiment in vitro) | effect on isolated atria (isolated atria) |
| --- | --- | --- | --- | --- | --- | --- | --- | --- | --- |
| CCCCCCCCCCCCCC(=O)OC(C)(C)C1CC=C(C)CC1 (stereo not drawn) [A] | 35.07 ± 2.81 mmHg | 17.6 ± 2.89 | 16.6 ± 14.5 | 139.50 ± 31.24^Δ × 10^8/L |  |  |  |  |  |
| Cn1c(=O)c2[nH]cnc2n(C)c1=O [Aminophylline, reference compound] |  | 43.7 ± 10.2 | 56.7 ± 9.26 |  |  |  |  |  |  |
| CCCCCCCCCCCCCCCCCC(=O)OC(C)(C)C1CC=C(C)CC1 (stereo not drawn) [B] | 36.08 ± 2.01 mmHg | 15.4 ± 9.83 | 10.6 ± 13.8 | 134.50 ± 25.27^Δ × 10^8/L |  |  |  |  |  |
| CC1=CCC(C(C)(C)OC(=O)CN(C)CCO)CC1 (stereo not drawn) [C] | 22.33 ± 1.03^ΔΔ## mmHg | 50.2 ± 7.3 | 76.8 ± 7.7 | 77.50 ± 68.81 × 10^8/L |  |  |  |  |  |
| CC1=CCC(C(C)(C)OC(=O)CN2CCOCC2)CC1 (stereo not drawn) [D] | 32.04 ± 1.12^Δ mmHg | 36.6 ± 13.8 | 59.4 ± 14.7 | 110.5 ± 16.21 × 10^8/L |  |  |  |  |  |
| CC1=CCC(C(C)(C)OC(=O)CO[N+](=O)[O-])CC1 (stereo not drawn) [E] | 35.53 ± 3.02 mmHg |  |  | 139.50 ± 20.71^Δ × 10^8/L | 17.1 ± 6.98 | 10.8 ± 4.46 |  |  |  |
| CCN(CC)CC(=O)OC(C)(C)C1CC=C(C)CC1 (stereo not drawn) [F] | 23.35 ± 1.04^ΔΔ## mmHg | 42.3 ± 10.4 | 46.7 ± 3.56 | 101.50 ± 14.68 × 10^8/L |  |  |  |  |  |
| CC1=CCC(C(C)(C)OC(=O)CSCCO)CC1 (stereo not drawn) [G] | 21.08 ± 1.31^ΔΔ# mmHg | 48.3 ± 9.36 | 81.1 ± 10.2 | 76.00 ± 18.15 × 10^8/L |  |  |  |  |  |
| CC1=CCC(C(C)(C)OC(=O)CN2CCC(=O)CC2)CC1 (stereo not drawn) [H] | 30.33 ± 2.03^Δ mmHg | 20.9 ± 7.55 | 43.8 ± 10.2 | 123.00 ± 17.23 × 10^8/L |  |  |  |  |  |
| CC1=CCC(C(C)(C)OC(=O)CN2CCC(O)CC2)CC1 (stereo not drawn) [J] | 27.06 ± 1.17^Δ mmHg | 35.2 ± 13.9 | 71.5 ± 15.4 | 99.50 ± 21.23 × 10^8/L |  |  |  |  |  |
| CC1=CCC(C(C)(C)OC(=O)CN2CCCCC2)CC1 (stereo not drawn) [L] | 25.36 ± 1.17^ΔΔ# mmHg | 42.5 ± 6.14 | 52.2 ± 6.98 | 110.50 ± 16.18 × 10^8/L |  |  |  |  |  |
| CC1=CCC(C(C)(C)OC(=O)CN(CCO)CCO)CC1 (stereo not drawn) [M] | 33.36 ± 2.05^Δ mmHg | 27.7 ± 2.08 | 61 ± 5.07 | 97.50 ± 13.11 × 10^8/L |  |  |  |  |  |
| CC1CCC(C(C)(C)O)CC1 (stereo not drawn) [N] | 32.56 ± 2.82^Δ mmHg | 27.2 ± 14.1 | 41.3 ± 13.2 | 140.00 ± 26.21^Δ × 10^8/L |  |  |  |  |  |
| CC1=CCC(C(C)(C)O)CC1 (stereo not drawn) [α-T, α,α,4-Trimethylcyclohex-3-en-1-methanol, reference compound] | 33.03 ± 2.22^Δ mmHg | 28.4 ± 16.1 | 38.4 ± 13.6 | 113.00 ± 21.27 × 10^8/L |  |  | increase cAMP content | available for air passage relaxation | inhibiting effect |

— US11117866B2, “Terpineol and preparation method and application thereof” (priority 2016, dated 2021)
